From patent US20060251638A1, “Cytoprotection through the use of hif hydroxylase inhibitors” (priority 2003, published 2006)

Assays:
[1] = test system: H9c2 rat cardiomyocytes; assay: Intracellular ATP levels in H9c2 cardiomyocytes after oxygen and glucose deprivation (glucose-free DMEM, 2 mM KCN); format: cell-based; conditions: H9c2, 20 μM pretreatment 24 hours, glucose-free DMEM and 2 mM KCN for 30 minutes; vehicle control 415
Protocol: In similar experiments, H9c2 rat cardiomyocytes were pretreated with either vehicle control (0.5% DMSO) or 20 μM of Compound A, Compound B, Compound C, Compound D, Compound E, Compound F, Compound G, or compound H. After 24 hours, cells were washed with serum-free DMEM and subjected to oxygen and glucose deprivation by incubating the cells in glucose-free DMEM and 2 mM KCN for 30 minutes. Intracellular ATP levels were then determined.

[2] = test system: gene encoding adrenomedullin; assay: Adrenomedullin gene expression in peripheral blood mononuclear cells; format: cell-based; conditions: human PBMCs, 5 μM, 20 hours
Protocol: Adrenomedullin gene expression following compound treatment was also examined in peripheral blood mononuclear cells (PBMCs). Whole human blood was collected and processed immediately. The blood was diluted with an equal volume of phosphate buffered saline. FICOLL-PAQUE PLUS (Amersham Biosciences) was layered under the blood and the tubes were centrifuged at 350×g for 12 minutes at room temperature. PBMCs formed a visible layer in the middle layer of the tube. PBMCs were carefully removed from the tube, diluted with 3 volumes of phosphate buffered saline, and pelleted by centrifugation for 5 minutes at 300×g at room temperature. PBMCs were cultured in DMEM containing 2.5% fetal bovine serum and treated with either 0.25% DMSO or compound G (5 μM) in 0.25% DMSO for 20 hours. The cells were then pelleted and stored at −20° C. in RLT lysis buffer (Qiagen Inc., Valencia, Calif.) containing 1% beta-mercaptoethanol. Total RNA was isolated using the RNeasy kit (Valencia, Calif.).

[3] = test system: H9c2 rat cardiomyocytes; assay: Intracellular ATP levels and morphology of H9c2 cardiomyocytes under homocysteic acid (HCA) oxidative stress; format: cell-based
Protocol: H9c2 rat cardiomyocytes were incubated with 10 mM homocysteic acid (HCA) in the absence or presence of various concentrations of compound G as indicated for 24 hours. Cell viability was determined by measuring intracellular ATP levels. Quantitation of intracellular ATP levels was performed using the ViaLight Plus™ kit (Cambrex Cat. No. LT17-221) according to the manufacturers instructions.
Phase contrast microscopy of cells treated with HCA correlated with the results shown for intracellular ATP levels in vehicle (DMSO) and compound G treated cells.

[4] = test system: caspase-3 and caspase-7; assay: Caspase-3 and caspase-7 fluorometric assay in SH-SY5Y cells challenged with staurosporin; format: cell-based, human
Protocol: SH-SY5Y cells (human neuroblastoma cells) were plated in 96-well culture plates at 60,000 cells per well. Following overnight incubation, cells were washed one time with DMEM containing 1% fetal bovine serum and cultured in identical media with either vehicle control (DMSO) or 20 μM compound G in a total volume of 200 μl per well. After 24 hours, cells were washed with serum-free media and then incubated with DMEM containing 10% fetal bovine serum with either vehicle control (DMSO) or 20 μM compound G in a total volume of 200 μl per well. Replicate cultures received DMEM with 1% fetal bovine serum and were cultured with either vehicle control (DMSO) or 20 μM compound G, in the absence or presence of 500 nM staurosporin, a kinase inhibitor that induces cellular apoptosis by a caspase-dependent mechanism. (Jacobsen et al. (1996) J Cell Biol. 133:1041-51.). After an additional 24 hour incubation, caspase activity was assayed using a caspase-3 and caspase-7 fluorometric assay according to the manufacturer's instructions (Apo-ONE Homogenous Caspase 3/7 Assay, Promega, Wis.).

[5] = test system: HO-1 protein; assay: HO-1 protein levels in H9c2 cardiomyocytes by ELISA; format: cell-based, rat; conditions: H9c2, 100 μM compound; control 2.86
Protocol: In another series of experiments, H9c2 rat cardiomyocytes were treated with either vehicle control or with various concentrations (1 μM, 3 μM, 10 μM, 30 μM, and 100 μM) of compound C or compound G. Cell lysates were harvested and HO-1 protein levels determined by ELISA according to the manufacturer's instructions (cat # EKS-810; Stressgen, Victoria, BC, Canada). Data shown below in Table 4 represents values obtain with 100 μM compound.

[6] = test system: Human umbilical vein endothelial cells (HUVEC); assay: TNF-α induced apoptosis in HUVEC (Annexin V immunostaining, morphology); format: cell-based
Protocol: Human umbilical vein endothelial cells (HUVEC) were plated in DMEM containing 0.5% fetal bovine serum that was supplemented with 1 ng/ml of vascular endothelial growth factor. After overnight culture, the cells were washed with PBS and incubated for an additional 24 hours in DMEM containing 0.5% fetal bovine serum and either vehicle control (DMSO) or 25 μM of compound G. The cell cultures were subsequently washed and re-cultured with DMEM containing 0.5% fetal bovine serum containing 20 ng/ml TNF-α for an additional 4 or 8 hours. The cells were then harvested and immunostained with either FITC-conjugated isotype control or FITC-conjugated Annexin V for identification and determination of cells undergoing apoptosis. (Koopman et al. (1994) Blood 84:1415-1420.) Annexin V preferentially binds negatively charged phospholipids, like phosphatidylserine, which are associated with plasma membrane changes in apoptotic cells. Annexin V binding allows for the identification and quantitation of cells at early stages of apoptosis, when apoptosis occurs in the absence of DNA fragmentation, and the discrimination between cell death associated with apoptosis or with necrosis.
In replicate HUVEC cultures treated as described above, light micrographs were taken of cells treated with vehicle control (DMSO) and compound G following stimulation with 20 ng/ml TNF-α for 4 and 8 hours (FIG. 6). […]

For O=C(O)CNC(=O)c1ncc2cc(Oc3ccccc3)ccc2c1O [Compound G, [(4-Hydroxy-7-phenoxy-isoquinoline-3-carbonyl)-amino]-acetic acid], the “ATP (relative light units)” value [1] was 2128.3 relative light units, the “increase in expression of the gene encoding adrenomedullin compared to non-treated control cells” value [2] was “greater than 3.518 fold” and the “intracellular ATP levels in the presence of HCA versus vehicle” value ([3]; H9c2, 10 mM HCA, various concentrations, 24 hours, FIG. 2) was “dose-dependent increases in intracellular ATP levels”. The “cell morphology by phase contrast microscopy under HCA” value ([3]; H9c2, HCA, 30 μM compound, FIG. 3) was “still confluent, appeared less rounded, and maintained a morphology consistent with viable cardiomyoctes”, the “intracellular ATP levels in cells not incubated with HCA” value ([3]; H9c2, no HCA, data not shown) was “unchanged” and the “caspase activity after staurosporine challenge” value ([4]; 20 μM pretreatment, 500 nM staurosporin, 1% fetal bovine serum, FIG. 1) was “significantly inhibited”. The “caspase activity in cells not undergoing apoptosis, versus DMSO” value ([4]; 20 μM, 10% fetal bovine serum, no staurosporin) was “no differences in caspase activity”, the “HO-1 (ng/mg total cell protein)” value [5] was 28.54 ng/mg total cell protein and the “annexin V immunostaining (mean fluorescence intensity) versus TNF-α alone” value ([6]; 25 μM for 24 hours prior to 20 ng/ml TNF-α for 4 or 8 hours) was “reduced annexin V immunostaining”. For the same compound, the “HUVEC morphology after TNF-α (light micrographs)” value ([6]; 25 μM prior to 20 ng/ml TNF-α for 4 and 8 hours) was “viable and normal morphology”.
